The values that follow come from patent US20170247693A1 (priority 2016, published 2017).

This data set relates to HepG2 cells. As to conditions: normoxia.

`COc1cccc2c1C(=O)c1c(O)c3c(c(O)c1C2=O)C[C@@](O)(C(=O)CO)C[C@@H]3O[C@H]1C[C@H](N)[C@H](O)[C@H](C)O1` [DOX, Doxorubicin]: the “minimal concentration that diminished the growth of the treated cells” value (HepG2) is reported as 1 μm. In addition, the “decrease of cell viability” value (HepG2 infected with vACE-NT, 72 h after administering DOX (1 μm)) came to 27%.
